Measurements reported in PMC6320956, “O-Aminoalkyl-O-Trimethyl-2,3-Dehydrosilybins: Synthesis and In Vitro Effects Towards Prostate Cancer Cells” (Molecules, 2018).

Columns and labels:
[1] = system: PC-3 cells; experiment: WST-1 cell proliferation assay, PC-3; type: cell-based, human; conditions: for IC50: WST-1, three days of exposure, mean ± SD, n = 3; for IC50 (Silibinin)/IC50(Derivative) PC-3: fold potency relative to silibinin
Description: (§1) The in vitro antiproliferative activities of six 7-O-substituted and 26 3-O-substituted silybin derivatives were evaluated using the WST-1 cell proliferation assay, according to the procedure as described in the Experimental Section in both androgen-sensitive (LNCaP) and androgen-insensitive (PC-3 and DU145) human prostate cancer cell lines. Silibinin and docetaxel were used as a positive control for comparison in the parallel experiments and the IC50 values calculated from the dose-response curves are summarized in Table 1. […] A three-carbon linker in 11 and 29, as well as a five-carbon linker in 31, 37 and 40, are beneficial to the potency.
(§2) All cell lines were initially purchased from American Type Culture Collection (ATCC^TM) (Manassas, VA, USA). The PC-3 and LNCaP prostate cancer cell lines were routinely cultured in RPIM-1640 medium supplemented with 10% FBS and 1% penicillin/streptomycin. The DU145 prostate cancer cells were routinely cultured in Eagle’s Minimum Essential Medium (EMEM) supplemented with 10% FBS and 1% penicillin/streptomycin. Cultures were maintained in a high humidity environment supplemented with 5% carbon dioxide at a temperature of 37 °C.
(§3) PC-3, DU145, or LNCaP cells were plated in 96-well plates at a density of 3,200 per well in 200 µL of culture medium. The cells were then separately treated with silibinin, or synthesized silibinin derivatives, at five different doses for three days, while equal treatment volumes of DMSO (0.25%) were used as the vehicle control. The cells were cultured in a CO2 incubator at 37 °C for three days. A total of 10 µL of the premixed WST-1 cell proliferation reagent (Clontech) was added to each well. After mixing gently for one min on an orbital shaker, the cells were incubated for an additional 3 h at 37 °C. To ensure a homogeneous distribution of color, it is important to mix gently on an orbital shaker for one min. The absorbance of each well was measured using a microplate reader (Synergy HT, BioTek, Winooski, VT, USA) at a wavelength of 430 nm. […] For calculating the IC50 values, a linear proliferative inhibition was made based on at least five dosages for each compound.

[2] = system: PC-3 cells; experiment: Cell cycle analysis by flow cytometry (propidium iodide); type: cell-based, human; conditions: 20 µM, 16 h; controls 55.7% (11), 36.2% (29), 33.1% (31, 37, 40)
Description: Silibinin can arrest the rat (H-7 and I-8) and human prostate cancer cell (LNCaP) cycle at the G1 phase, and cause G1 and G2-M PC-3 prostate cancer cell cycle arrest.
PC-3 cells were plated in 24-well plates at a density of 200,000 per well in 400 µL of culture medium. […] […] Both attached and floating cells were collected in a centrifuge tube by centrifugation at an rcf value of 450 g for 5 min. After discarding the supernatant, the collected cells were re-suspended with 500 µL 80% cold ethanol to fix them for 30 min in 4 °C. The fixed cells could be stored at −20 °C for one week. After fixation, the ethanol was removed after centrifuging and the cells were washed with PBS. The cells were then re-suspend with 100 μL of […] ribonuclease and were cultured at 37 °C for 30 min to degrade all RNA. The cells were stained with 200 μL of 50 μg/mLpropidium iodide stock solution for 30 min at […], and then the fluorescence intensity of PI was detected in individual PC-3 cells using an Attune flow cytometer (Life Technologies, Carlsbad, CA, USA) within 0.5 to 1 h after staining.

[3] = system: MCF 10A non-neoplastic human mammary epithelial cell line; experiment: WST-1 cell proliferation assay, MCF 10A non-neoplastic cells; type: cell-based; conditions: Homo sapiens, MCF-10A, 72 h; WST-1, three days of exposure, mean ± SD, n = 3
Description: (§4) Silibinin and five potent derivatives (11, 29, 31, 37, and 40) were selected for further evaluation against the MCF 10A non-neoplastic human mammary epithelial cell line and PWR-1E non-neoplastic human prostate epithelial cells.
as §3

[4] = system: LNCaP cells; experiment: WST-1 cell proliferation assay, LNCaP; type: cell-based, human; conditions: for IC50: WST-1, three days of exposure, mean ± SD, n = 3; for IC50 (Silibinin)/IC50(Derivative) LNCaP: fold potency relative to silibinin
Description: as §1, §2, §3

[5] = system: prostate cancer cell lines (LNCaP, PC-3 and DU145); experiment: WST-1 cell proliferation assay, three prostate cancer cell lines together; type: cell-based, human; conditions: range for the five optimal derivatives over PC-3, DU145, LNCaP; for IC50: Homo sapiens
Text: As part of our ongoing silybin project, this study aims to introduce a basic nitrogen-containing group to 7-OH of 3,5,20-O-trimethyl-2,3-dehydrosilybin or 3-OH of 5,7,20-O-trimethyl-2,3-dehydrosilybin via an appropriate linker for in vitro evaluation as potential anti-prostate cancer agents. The synthetic approaches to 7-O-substituted-3,5,20-O-trimethyl-2,3-dehydrosilybins through a five-step procedure and to 3-O-substituted-5,7,20-O-trimethyl-2,3- dehydrosilybins via a four-step transformation have been developed. Thirty-two nitrogen-containing derivatives of silybin have been achieved through these synthetic methods for the evaluation of their antiproliferative activities towards both androgen-sensitive (LNCaP) and androgen-insensitive prostate cancer cell lines (PC-3 and DU145) using the WST-1 cell proliferation assay. […] All these five optimal derivatives can arrest the PC-3 cell cycle in the G0/G1 phase and promote PC-3 cell apoptosis.
as §3
In summary, six 7-O-aminoalkyl-3,5-20-O-trimethyl-2,3-dehydrosilybins and 26 3-O-aminoalkyl-5,7,20-O-trimethyl-2,3-dehydrosilybins have been successfully synthesized through a five-step and four-step sequence, respectively. The synthetic methods can be used for the general synthesis of 7-O-substituted-3,5,20-O-trimethyl-2,3-dehydrosilybins and 3-O-substituted-5,7,20-O- trimethyl-2,3-dehydrosilybins. The antiproliferative activities of the 32 derivatives against three prostate cancer cell lines have been evaluated using the WST-1 cell proliferation assay. […] All these five optimal derivatives can cause PC-3 cell accumulation in a G0/G1 phase by increasing the cell population in this phase at 16 h. Derivatives 11, 37, and 40 show a stronger ability than derivatives 29 and 31 in activating PC-3 cell apoptosis by inducing appreciable levels of apoptotic cell death at a 5 µM concentration after 16 h of treatment.

[6] = system: PWR-1E non-neoplastic human prostate epithelial cells; experiment: WST-1 cell proliferation assay, PWR-1E non-neoplastic cells; type: cell-based; conditions: Homo sapiens, PWR-1E, 72 h; WST-1, three days of exposure, mean ± SD, n = 3
Description: as §4, §3

[7] = system: PC-3 cells; experiment: F2N12S and SYTOX AADvanced double staining apoptosis assay; type: cell-based, human
[8] = system: DU145 cells; experiment: WST-1 cell proliferation assay, DU145; type: cell-based, human; conditions: for IC50: Homo sapiens, DU-145, 72 h, WST-1, three days of exposure, mean ± SD, n = 3; for IC50 (Silibinin)/IC50(Derivative) DU145: fold potency relative to silibinin
Description: as §1, §2, §3

[9] = 10 µM, 16 h, range over 11, 37, 40
[10] = 20 µM, 16 h, range over 11, 37, 40

| Compound | IC50 ([1]; Homo sapiens, PC-3, 72 h) | IC50 [1] | IC50 ([4]; Homo sapiens, LNCaP, 72 h) | IC50 [4] | IC50 [5] | IC50 [8] | IC50 (Silibinin)/IC50(Derivative) PC-3 [1] | IC50 (Silibinin)/IC50(Derivative) LNCaP [4] | IC50 (Silibinin)/IC50(Derivative) DU145 [8] | PC-3 cell population in G0/G1 phase [2] | IC50 [3] | fold improvement in potency compared to silibinin [5] | IC50 [6] | other results |
| --- | --- | --- | --- | --- | --- | --- | --- | --- | --- | --- | --- | --- | --- | --- |
| COc1cc(OC)c2c(=O)c(OCCCCCN3CCCCC3)c(-c3ccc4c(c3)OC(c3ccc(OC)c(OC)c3)C(CO)O4)oc2c1 (stereo not shown) [Compound 37] | ≤ 3000 nM | 2710 ± 230 nM | ≤ 3000 nM | 1990 ± 230 nM | 1400 to 3060 nM | 2690 ± 30 nM |  |  |  | 34.6% | < 5000 nM | 17- to 52 fold | < 5000 nM | early phase apoptosis in PC-3 cells ([7]; 5 µM, 16 h, range over 11, 37, 40): 26–59%; early apoptotic cells [7, 9]: 56–76%; late apoptotic/necrotic cells [7, 9]: 6–40%; early apoptotic cells [7, 10]: 54–75%; late apoptotic/necrotic cells [7, 10]: 16–44%; concentration at which the apoptotic cell population reached its maximum ([7]; PC-3, 16 h): 10 µM |
| CCN(CC)CCCOc1c(-c2ccc3c(c2)OC(c2ccc(OC)c(OC)c2)C(CO)O3)oc2cc(OC)cc(OC)c2c1=O (stereo not shown) [Compound 23] | 5160 ± 940 nM |  | 3090 ± 150 nM |  |  | 9210 ± 370 nM | 14 | 14 | 10 |  |  |  |  |  |
| COc1cc(OC)c2c(=O)c(OCCCCN3CCOCC3)c(-c3ccc4c(c3)OC(c3ccc(OC)c(OC)c3)C(CO)O4)oc2c1 (stereo not shown) [Compound 39] | 3490 ± 240 nM |  | 2840 ± 220 nM |  |  | 6360 ± 370 nM | 21 | 15 | 15 |  |  |  |  |  |

Continued, in another order:

| IC50 ([1]; Homo sapiens, PC-3, 72 h) | IC50 [1] | IC50 ([4]; Homo sapiens, LNCaP, 72 h) | IC50 [4] | IC50 [5] | IC50 [8] | IC50 (Silibinin)/IC50(Derivative) PC-3 [1] | IC50 (Silibinin)/IC50(Derivative) LNCaP [4] | IC50 (Silibinin)/IC50(Derivative) DU145 [8] | Compound | PC-3 cell population in G0/G1 phase [2] | IC50 [3] | fold improvement in potency compared to silibinin [5] | IC50 [6] | other results |
| --- | --- | --- | --- | --- | --- | --- | --- | --- | --- | --- | --- | --- | --- | --- |
| ≤ 3000 nM | 2840 ± 100 nM | ≤ 3000 nM | 2510 ± 310 nM | 1400 to 3060 nM | 2850 ± 230 nM |  |  |  | CCCCN(CCCC)CCCCCOc1c(-c2ccc3c(c2)OC(c2ccc(OC)c(OC)c2)C(CO)O3)oc2cc(OC)cc(OC)c2c1=O (stereo not shown) [Compound 31] | 35.9% | < 5000 nM | 17- to 52 fold | < 5000 nM | maximum apoptotic cell population ([7]; 50 µM, 16 h): 95%; apoptotic cell death ([7]; up to a 10 µM concentration, 16 h): less than 10% |
| 2860 ± 790 nM |  | 5890 ± 300 nM |  |  | 14100 ± 2790 nM | 25 | 7 | 7 | COc1cc(OC)c2c(=O)c(OCCCN3CCCC3)c(-c3ccc4c(c3)OC(c3ccc(OC)c(OC)c3)C(CO)O4)oc2c1 (stereo not shown) [Compound 32] |  |  |  |  |  |
